Assay results published in patent US9579407B2, “Radiolabeled compounds and their use as radiotracers for quantitative imaging of phosphodiesterase (PDE10A) in mammals” (TAKEDA PHARMACEUTICAL COMPANY LIMITED, priority 2011, dated 2017).
pIC50: −log10 of the molar value.

What was measured:
[1] = Plasma metabolite analysis (parent fraction) during PET, [11C]compound; assay type: in vivo, rhesus monkeys; details: venous plasma, i.v.
Protocol: (§1) PET measurements were performed with the High Resolution Research Tomograph system (HRRT) (Siemens Molecular Imaging) using two rhesus monkeys with body weight of 4450 g and 5000 g. The monkeys were maintained under gas anesthesia of sevoflurane, oxygen, and medical air during PET measurements. 123-min dynamic brain PET data were acquired in List mode after 150 and 162 MBq of [^11C] compound of Example 2 and 159 and 162 MBq of [^11C] compound of Example 3 were injected intravenously. List-mode data were reconstructed using the ordinary Poisson-3D-ordered subset expectation maximization (OP-3D-OSEM) algorithm, with 10 iterations and 16 subsets including modelling of the point spread function (PSF). During PET acquisition, venous blood sampling was performed for the metabolite analysis.
(§2) Regions of interest (ROIs) for Caudate, Putamen, Nucleus Accumbens, Thalamus, Cerebellum, Frontal cortex, Temporal cortex, and whole brain were delineated on MRI/PET coregistered images using PMOD software (v3.1 PMOD Technologies Ltd. Zurich, Switzerland). Time activity curves were generated for these regions. The uptake was expressed as % ID (=total radioactivity in the brain (MBq)*100/injected radioactivity (MBq)) or % SUV (=radioactivity in the region (MBq/cc)*100/(injected radioactivity (MBq)/Body weight (g))). Metabolite fraction in the plasma was measured by a radio LC analysis. The results are shown in FIGS. 3, 4, 5, 6, 7, 8, 9 and 10.

[2] = PET brain uptake (whole brain and regional), [11C]compound; assay type: in vivo, rhesus monkeys; details: for regional brain uptake: regions of interest on MRI/PET coregistered images; for time at which whole brain uptake decreased to half / time at which whole brain uptake reached peak / whole brain uptake at the peak: i.v.; for time at which whole brain uptake reached peak: 123-min PET; for whole brain uptake at the peak: % ID = total radioactivity in the brain*100/injected radioactivity
Protocol: as §1
(§3) T1-weighted MR images were acquired with an MRI system GE 1.5 T Signa unit (Milwaukee, Wis., USA). The T1 sequence was a 3-D SPGR protocol with the following settings: repetition time (TR) 21 ms, flip angle 35°, FOV 12.8, matrix 256×256×128, 128×1.0 mm slices.
as §2

PDE10A [3] = assay: PET specific radioligand binding in putamen (PDE10A rich region) vs cerebellum, [11C]compound; assay type: in vivo, rhesus monkeys; details: for ratio of the specific binding between the uptake in the target region and the uptake in the cerebellum: increased up to, during 123 min PET measurements; for time of peak of specific binding in Putamen: uptake of the putamen minus the cerebellum
Protocol: (§4) Since the compounds of the present invention show efficacy exhibition, they are useful as PET radioligands of PDE10A.
as §1, §2

[4] = Plasma metabolite analysis (parent fraction) during PET, [18F]compound; assay type: in vivo, cynomolgus monkeys; details: venous plasma, i.v.
Protocol: (§5) PET measurements were performed with the High Resolution Research Tomograph system (HRRT) (Siemens Molecular Imaging) using three cynomolgus monkeys with body weight of 3730 g to 4845 g. The monkeys were maintained under gas anesthesia of sevoflurane, oxygen, and medical air during PET measurements.
(§6) 180-min dynamic brain PET data were acquired in List mode after 148 and 157 MBq of [^18F]compound of Example 119 and 159 and 163 MBq of [^18F]compound of Example 120 were injected intravenously. List-mode data were reconstructed using the ordinary Poisson-3D-ordered subset expectation maximization (OP-3D-OSEM) algorithm, with 10 iterations and 16 subsets including modelling of the point spread function (PSF). During PET acquisition, venous blood sampling was performed for the metabolite analysis.
as §2, with “(v3.2PMOD” for “(v3.1 PMOD”, “13, 14, 15, 16, 17, 18, 19” for “3, 4, 5, 6, 7, 8, 9”, “20.” for “10.”

[5] = PET brain uptake (whole brain and regional), [18F]compound; assay type: in vivo, cynomolgus monkeys; details: for regional brain uptake: regions of interest on MRI/PET coregistered images; for time at which whole brain uptake decreased to half / time at which whole brain uptake reached peak / whole brain uptake at the peak: i.v.; for time at which whole brain uptake reached peak: 180-min PET; for whole brain uptake at the peak: % ID = total radioactivity in the brain*100/injected radioactivity
Protocol: as §5, §6, §3
as §2, with “(v3.2PMOD” for “(v3.1 PMOD”, “13, 14, 15, 16, 17, 18, 19” for “3, 4, 5, 6, 7, 8, 9”, “20.” for “10.”

PDE10A [6] = assay: PET specific radioligand binding in putamen (PDE10A rich region) vs cerebellum, [18F]compound; assay type: in vivo, cynomolgus monkeys; details: for ratio of the specific binding between the uptake in the target region and the uptake in the cerebellum: increased up to; for time of peak of specific binding in Putamen: uptake of the putamen minus the cerebellum
Protocol: as §4, §5, §6
as §2, with “(v3.2PMOD” for “(v3.1 PMOD”, “13, 14, 15, 16, 17, 18, 19” for “3, 4, 5, 6, 7, 8, 9”, “20.” for “10.”

Human PDE10A enzyme = Human PDE10A enzyme (Homo sapiens (Human), UniProt Q9Y233); assay: PDE10A enzyme inhibition (SPA, [3H]cGMP); assay type: biochemical; details: unlabeled compound
Sequence of Human PDE10A enzyme (Q9Y233 267-1055): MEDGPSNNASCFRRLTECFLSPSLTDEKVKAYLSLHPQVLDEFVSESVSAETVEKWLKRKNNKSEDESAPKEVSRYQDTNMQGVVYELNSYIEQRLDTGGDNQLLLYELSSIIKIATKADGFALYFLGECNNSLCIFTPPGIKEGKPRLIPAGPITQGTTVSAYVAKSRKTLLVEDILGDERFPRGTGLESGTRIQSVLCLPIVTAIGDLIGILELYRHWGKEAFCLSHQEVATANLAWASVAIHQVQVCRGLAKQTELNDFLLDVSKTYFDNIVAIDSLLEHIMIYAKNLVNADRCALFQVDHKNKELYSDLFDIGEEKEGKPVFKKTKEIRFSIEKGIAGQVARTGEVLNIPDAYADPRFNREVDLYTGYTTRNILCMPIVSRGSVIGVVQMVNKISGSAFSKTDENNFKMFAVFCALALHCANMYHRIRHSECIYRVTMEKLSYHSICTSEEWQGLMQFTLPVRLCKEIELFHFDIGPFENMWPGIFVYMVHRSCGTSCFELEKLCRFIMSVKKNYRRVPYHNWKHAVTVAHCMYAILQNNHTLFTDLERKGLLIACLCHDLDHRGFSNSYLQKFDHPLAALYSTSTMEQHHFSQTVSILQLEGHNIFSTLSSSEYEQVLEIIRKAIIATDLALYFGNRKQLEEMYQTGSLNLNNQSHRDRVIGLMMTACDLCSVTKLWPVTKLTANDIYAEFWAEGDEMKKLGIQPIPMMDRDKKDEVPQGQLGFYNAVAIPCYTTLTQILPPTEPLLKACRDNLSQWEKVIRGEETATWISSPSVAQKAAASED
Protocol: Many of the compounds within the present invention had activity in inhibiting the human PDE10A enzyme in the aforementioned assay, generally with an […] of less than about 0.1 μM. Such a result is indicative of the intrinsic activity of the compounds in use as inhibitors of the PDE10A enzyme.
Human PDE10A enzyme was generated from Sf9 or COS-7 cells transfected with the full-length gene. Cloned enzyme was extracted from homogenized cell pellets. The extracted enzyme from sf9 cells was partially purified using His-tag affinity column. The enzyme was stored at −70° C. until use. PDE activity was measured using a SPA (Scintillation Proximity Assay) (GE Healthcare). To evaluate the inhibitory activity, 10 μL of serial diluted compounds were incubated with 20 μL of PDE enzyme in assay buffer (50 mM HEPES-NaOH, 8.3 mM MgCl2, 1.7 mM EGTA, 0.1% BSA (pH 7.4)) for 30 min. at room temperature. Final concentration of DMSO in the assay was 1% as compounds were tested in duplicate in 96-well half-area plates (Corning). To start the reaction, 10 μL of substrate [^3H] cGMP (25 or 50 nM; enclosed in SPA kits from GE Healthcare or purchased from PerkinElmer, respectively) was added for a final assay volume of 40 μL. After 60 min incubation at room temperature, yttrium SPA beads containing zinc sulphate were added (20 μL at 6 mg/mL) to terminate the PDE reaction. After being settled for 60 min., assay plates were counted in a scintillation counter (PerkinElmer) to allow calculation of inhibition rate. IC50 values were calculated on the basis of 0% control wells with DMSO and 100% control wells without enzyme.

[7] = system: Human PDE1A, 2A3, 3A, 4D2, 5A1, 6AB, 7B, 8A1, 9A2, and 11A4 enzymes; assay: PDE family enzyme inhibition selectivity assay (SPA); assay type: biochemical; details: ratio of IC50 for each PDE other than PDE10A to IC50 for PDE10A
Protocol: The PDE10A IC50 is a measure of the ability of the test compound to inhibit the action of the PDE10A enzyme. To determine the selectivity of the test compounds for PDE10A, the IC50 of the compound was determined for PDEs 1-9, and 11.
Human PDE1A, 3A, 4D2, 5A1, 7B, 8A1, 9A2, and 11A4 enzymes were purchased from BPS Bioscience. Human PDE6AB enzyme was purchased from Scottish Biomedical. Human PDE2A3 was generated from Sf9 transfected with the full-length gene in house. PDE activities were measured using a SPA (Scintillation Proximity Assay) (PerkinElmer). To evaluate the inhibitory activity, 10 μL of serial diluted compounds were incubated with 20 μL of PDE enzyme in assay buffer (50 mM HEPES-NaOH, 8.3 mM MgCl2, 1.7 mM EGTA, 0.1% BSA (pH 7.4)) for 30 min. at room temperature. Final concentration of DMSO in the assay was 1% as compounds were tested in duplicate in 96-well half-area plates (Corning). To start the reaction, 10 μL of substrate [^3H] cGMP (PerkinElmer) for PDE1A, 2A3, 5A1, 6AB, 9A2, and 11A4 or [^3H] cAMP (PerkinElmer) for PDE3A, 4D2, 7B, and 8A1 was added for a final assay volume of 40 μL. After 60 min incubation at room temperature, yttrium SPA beads containing zinc sulphate were added (20 μL at 6 mg/mL) to terminate the PDE reaction. After being settled for 60 min., assay plates were counted in a scintillation counter (PerkinElmer) to allow calculation of inhibition rate. IC50 values were calculated on the basis of 0% control wells with DMSO and 100% control wells without enzyme. Selectivity was defined as the ratio of IC50 for each PDE other than PDE10A to IC50 for PDE10A.

With [11CH3]Oc1cn(-c2ccc(N3CC(F)(F)C3)cc2F)nc(-c2ccnn2-c2ccccc2)c1=O [Example 2] the “fraction of parent compound” value ([1]; at 30 min) was 70-76%, the “fraction of parent compound” value ([1]; at 90 min) was 52-58% and the regional brain uptake [2] was “Putamen showed highest uptake, followed by Caudate, Nuclear Accumbens and Thalamus”. For the same compound, the “time at which whole brain uptake decreased to half” value [2] was 60 to 66 min, the “time at which whole brain uptake reached peak” value [2] was 2.5 to 7.5 min and the “whole brain uptake at the peak” value [2] was 3.3-5.1 % ID. For the same compound, the “ratio of the specific binding between the uptake in the target region and the uptake in the cerebellum” value (from here on “ratio”) (PDE10A [3]) was 2.5-2.7 and the “time of peak of specific binding in Putamen” value (from here on “time of peak … in Putamen”) (PDE10A [3]) was 48 min.
For [11CH3]Oc1cn(-c2ccc(C3CCOCC3)cc2F)nc(-c2ccnn2-c2ccccc2)c1=O [Example 3, 1-[2-Fluoro-4-(tetrahydro-2H-pyran-4-yl)phenyl]-5-[^11C]methoxy-3-(1-phenyl-1H-pyrazol-5-yl)pyridazin-4(1H)-one], the “fraction of parent compound” value ([1]; at 30 min) was 56-57%, the “fraction of parent compound” value ([1]; at 90 min) was 45-53% and the regional brain uptake [2] was “Putamen showed highest uptake, followed by Caudate, Nuclear Accumbens and Thalamus”. For the same compound, the “time at which whole brain uptake decreased to half” value [2] was 30 min, the “time at which whole brain uptake reached peak” value [2] was 2 min and the “whole brain uptake at the peak” value [2] was 3.3-4.1 % ID. The “ratio” value (PDE10A [3]) was “approximately six” and the “time of peak … in Putamen” value (PDE10A [3]) was 42 min.
In the case of [2H]C([2H])(F)Oc1cn(-c2ccc(C3CCOCC3)cc2F)nc(-c2ccnn2-c2ccccc2)c1=O [Example 119, 5-([^18F]fluoro-methyloxy-d2)-1-(2-fluoro-4-(tetrahydro-2H-pyran-4-yl)phenyl)-3-(1-phenyl-1H-pyrazol-5-yl)pyridazin-4(1H)-one], the “fraction of parent compound” value ([4]; at 60 min) was 62-71%, the “fraction of parent compound” value ([4]; at 180 min) was 60-63% and the regional brain uptake [5] was “Putamen showed highest uptake, followed by Caudate, Nuclear Accumbens and Thalamus”. The “time at which whole brain uptake decreased to half” value [5] was 23 min, the “time at which whole brain uptake reached peak” value [5] was 2.5 min and the “whole brain uptake at the peak” value [5] was 5.2-5.7 % ID. The “ratio” value (PDE10A [6]; during 47-65 min PET measurements) was 3.0-3.9 and the “time of peak … in Putamen” value (PDE10A [6]) was 18.5 to 29 min.
For [2H]C([2H])(F)C([2H])([2H])Oc1cn(-c2ccc(C3CCOCC3)cc2F)nc(-c2ccnn2-c2ccccc2)c1=O [Example 120, 5-(2-[^18F]fluoro-ethyloxy-d4)-1-(2-fluoro-4-(tetrahydro-2H-pyran-4-yl)phenyl)-3-(1-phenyl-1H-pyrazol-5-yl)pyridazin-4(1H)-one], the “fraction of parent compound” value ([4]; at 60 min) was 64-74%, the “fraction of parent compound” value ([4]; at 180 min) was 51-72% and the regional brain uptake [5] was “Putamen showed highest uptake, followed by Caudate, Nuclear Accumbens and Thalamus”. For the same compound, the “time at which whole brain uptake decreased to half” value [5] was 23 to 35 min, the “time at which whole brain uptake reached peak” value [5] was 2.5 to 4.5 min and the “whole brain uptake at the peak” value [5] was 3.6 % ID. The “ratio” value (PDE10A [6]; during 65-75 min PET measurements) was 1.5-1.9 and the “time of peak … in Putamen” value (PDE10A [6]) was 35 to 41 min.
With COc1cn(-c2ccc(C3CCOCC3)cc2F)nc(-c2ccnn2-c2ccccc2)c1=O [Reference Example 16, 1-[2-Fluoro-4-(tetrahydro-2H-pyran-4-yl)phenyl]-5-methoxy-3-(1-phenyl-1H-pyrazol-5-yl)pyridazin-4(1H)-one] the pIC50 (Human PDE10A enzyme) was over 9.00 and the “Selectivity over other PDEs” value [7] was >1000-fold.
In the case of COc1cn(-c2ccc(N3CC(F)(F)C3)cc2F)nc(-c2ccnn2-c2ccccc2)c1=O [Reference Example 18, 1-[4-(3,3-Difluoroazetidin-1-yl)-2-fluorophenyl]-5-methoxy-3-(1-phenyl-1H-pyrazol-5-yl)pyridazin-4(1H)-one], the pIC50 (Human PDE10A enzyme) was over 9.00 and the “Selectivity over other PDEs” value [7] was >1000-fold.
With [2H]C([2H])(F)Oc1cn(-c2ccc(C3CCOCC3)cc2F)nc(-c2ccnn2-c2ccccc2)c1=O [Reference Example 122, 5-(Fluoromethoxy-d2)-1-{2-fluoro-4-(tetrahydro-2H-pyran-4-yl)phenyl}-3-(1-phenyl-1H-pyrazol-5-yl)pyridazin-4(1H)-one] the pIC50 (Human PDE10A enzyme) was over 8.00 and the “Selectivity over other PDEs” value [7] was >1000-fold.
With [2H]C([2H])(F)C([2H])([2H])Oc1cn(-c2ccc(C3CCOCC3)cc2F)nc(-c2ccnn2-c2ccccc2)c1=O [Reference Example 123, 5-(2-Fluoroethoxy-d4)-1-{2-fluoro-4-(tetrahydro-2H-pyran-4-yl)phenyl}-3-(1-phenyl-1H-pyrazol-5-yl)pyridazin-4(1H)-one] the pIC50 (Human PDE10A enzyme) was over 8.00 and the “Selectivity over other PDEs” value [7] was >100-fold.
